Data on 14 compounds can be found in ChEMBL document CHEMBL1134924, “An efficient and practical method for solid-phase synthesis of tripeptide-bearing glycopeptide antibiotics: combinatorial parallel synthesis of carboxamide derivatives of chloroorienticin B” (2002).

Converted amounts (≈) assume the structure as drawn. Where only a bound is given, the exact number is not on record here.

What all share (assay type): functional
For one experiment, the system named is Enterococcus faecium. The experiment can be described thus: In vitro antibacterial activity against VRE (Vancomycin Resistant Enterococcus faecium SR-7917).
A further experiment concerns Enterococcus faecalis. The experiment is described as follows: In vitro antibacterial activity against VRE (Vancomycin Resistant Enterococcus faecalis SR-7914).
The next experiment relates to Staphylococcus aureus. The experiment can be described thus: In vitro antibacterial activity against MRSA (Methicillin Resistant Staphylococcus aureus SR-3637).

What is called MIC is the lowest concentration found to suppress growth. A lower MIC goes with inhibition by little substance. Turning to `CN[C@H](CC(C)C)C(=O)N[C@H]1C(=O)N[C@@H](CC(N)=O)C(=O)N[C@H]2C(=O)N[C@H]3C(=O)NC(C(=O)N[C@@H](C(=O)NC(=O)[C@H](CCC(=O)O)NC(=O)CNC(=O)[C@@H](N)Cc4ccc(O)cc4)c4cc(O)cc(O)c4-c4cc3ccc4O)[C@H](O[C@H]3C[C@](C)(N)[C@@H](O)[C@H](C)O3)c3ccc(c(Cl)c3)Oc3cc2cc(c3O[C@@H]2O[C@H](CO)[C@@H](O)[C@H](O)[C@H]2O)Oc2ccc(cc2Cl)[C@H]1O`, the MIC was more than 128 µg/mL against Enterococcus faecium, more than 128 µg/mL against Enterococcus faecalis and 4 µg/mL (≈ 2.23 µM) in the experiment on Staphylococcus aureus.
For the compound `CN[C@H](CC(C)C)C(=O)N[C@H]1C(=O)N[C@@H](CC(N)=O)C(=O)N[C@H]2C(=O)N[C@H]3C(=O)NC(C(=O)N[C@@H](C(=O)NC(=O)[C@H](CCCCN)NC(=O)[C@H](Cc4c[nH]c5ccccc45)NC(=O)[C@@H](N)CC(C)C)c4cc(O)cc(O)c4-c4cc3ccc4O)[C@H](O[C@H]3C[C@](C)(N)[C@@H](O)[C@H](C)O3)c3ccc(c(Cl)c3)Oc3cc2cc(c3O[C@@H]2O[C@H](CO)[C@@H](O)[C@H](O)[C@H]2O)Oc2ccc(cc2Cl)[C@H]1O`, the figures for the MIC in the experiment on Enterococcus faecium, in the experiment on Enterococcus faecalis and against Staphylococcus aureus were 16 µg/mL (≈ 8.53 µM), 32 µg/mL (≈ 17.1 µM) and 0.5 µg/mL (≈ 0.267 µM), respectively.
Turning to `CN[C@H](CC(C)C)C(=O)N[C@H]1C(=O)N[C@@H](CC(N)=O)C(=O)N[C@H]2C(=O)N[C@H]3C(=O)NC(C(=O)N[C@@H](C(=O)NC(=O)[C@H](CCCCN)NC(=O)CNC(=O)[C@@H](N)Cc4ccc(O)cc4)c4cc(O)cc(O)c4-c4cc3ccc4O)[C@H](O[C@H]3C[C@](C)(N)[C@@H](O)[C@H](C)O3)c3ccc(c(Cl)c3)Oc3cc2cc(c3O[C@@H]2O[C@H](CO)[C@@H](O)[C@H](O)[C@H]2O)Oc2ccc(cc2Cl)[C@H]1O`, the MIC against Enterococcus faecium was 64 µg/mL (≈ 35.6 µM); against Enterococcus faecalis, 128 µg/mL (≈ 71.2 µM); in the experiment on Staphylococcus aureus, 0.5 µg/mL (≈ 0.278 µM).
The corresponding values for `CN[C@H](CC(C)C)C(=O)N[C@H]1C(=O)N[C@@H](CC(N)=O)C(=O)N[C@H]2C(=O)N[C@H]3C(=O)N[C@H](C(=O)N[C@H](C(=O)NC(=O)[C@H](Cc4c[nH]cn4)NC(=O)[C@@H]4CCCN4C(=O)[C@@H](N)Cc4c[nH]c5ccccc45)c4cc(O)cc(O)c4-c4cc3ccc4O)[C@H](O[C@H]3C[C@](C)(N)[C@@H](O)[C@H](C)O3)c3ccc(c(Cl)c3)Oc3cc2cc(c3OC2O[C@H](CO)[C@@H](O)[C@H](O)[C@H]2O)Oc2ccc(cc2Cl)[C@H]1O` (some centres not stated) are 16 µg/mL (≈ 8.56 µM), 64 µg/mL (≈ 34.2 µM) and 0.5 µg/mL (≈ 0.268 µM).
The corresponding values for `CN[C@H](CC(C)C)C(=O)N[C@H]1C(=O)N[C@@H](CC(N)=O)C(=O)N[C@H]2C(=O)N[C@H]3C(=O)NC(C(=O)N[C@@H](C(=O)NC(=O)[C@H](Cc4c[nH]cn4)NC(=O)[C@H](Cc4c[nH]c5ccccc45)NC(=O)[C@@H](N)Cc4ccc(O)cc4)c4cc(O)cc(O)c4-c4cc3ccc4O)[C@H](O[C@H]3C[C@](C)(N)[C@@H](O)[C@H](C)O3)c3ccc(c(Cl)c3)Oc3cc2cc(c3O[C@@H]2O[C@H](CO)[C@@H](O)[C@H](O)[C@H]2O)Oc2ccc(cc2Cl)[C@H]1O` are 8 µg/mL (≈ 4.13 µM), 16 µg/mL (≈ 8.27 µM) and 0.5 µg/mL (≈ 0.258 µM).
The corresponding values for `CN[C@H](CC(C)C)C(=O)N[C@H]1C(=O)N[C@@H](CC(N)=O)C(=O)N[C@H]2C(=O)N[C@H]3C(=O)NC(C(=O)N[C@@H](C(=O)NC(=O)CNC(=O)[C@H](Cc4c[nH]cn4)NC(=O)[C@@H](N)Cc4c[nH]c5ccccc45)c4cc(O)cc(O)c4-c4cc3ccc4O)[C@H](O[C@H]3C[C@](C)(N)[C@@H](O)[C@H](C)O3)c3ccc(c(Cl)c3)Oc3cc2cc(c3O[C@@H]2O[C@H](CO)[C@@H](O)[C@H](O)[C@H]2O)Oc2ccc(cc2Cl)[C@H]1O` are 16 µg/mL (≈ 8.75 µM), 32 µg/mL (≈ 17.5 µM) and 0.25 µg/mL (≈ 0.137 µM).
As for `CN[C@H](CC(C)C)C(=O)N[C@H]1C(=O)N[C@@H](CC(N)=O)C(=O)N[C@H]2C(=O)N[C@H]3C(=O)NC(C(=O)N[C@@H](C(=O)NC(=O)CNC(=O)[C@H](Cc4c[nH]c5ccccc45)NC(=O)[C@@H](N)CCCCN)c4cc(O)cc(O)c4-c4cc3ccc4O)[C@H](O[C@H]3C[C@](C)(N)[C@@H](O)[C@H](C)O3)c3ccc(c(Cl)c3)Oc3cc2cc(c3O[C@@H]2O[C@H](CO)[C@@H](O)[C@H](O)[C@H]2O)Oc2ccc(cc2Cl)[C@H]1O`, the results for the MIC against Enterococcus faecium, in the experiment on Enterococcus faecalis and against Staphylococcus aureus were 32 µg/mL (≈ 17.6 µM), 64 µg/mL (≈ 35.2 µM) and 0.25 µg/mL (≈ 0.137 µM), respectively.
The corresponding values for `CN[C@H](CC(C)C)C(=O)N[C@H]1C(=O)N[C@@H](CC(N)=O)C(=O)N[C@H]2C(=O)N[C@H]3C(=O)NC(C(=O)N[C@@H](C(=O)NC(=O)[C@H](Cc4ccc(O)cc4)NC(=O)[C@H](Cc4c[nH]c5ccccc45)NC(=O)[C@@H](N)CCC(=O)O)c4cc(O)cc(O)c4-c4cc3ccc4O)[C@H](O[C@H]3C[C@](C)(N)[C@@H](O)[C@H](C)O3)c3ccc(c(Cl)c3)Oc3cc2cc(c3O[C@@H]2O[C@H](CO)[C@@H](O)[C@H](O)[C@H]2O)Oc2ccc(cc2Cl)[C@H]1O` are more than 128 µg/mL, more than 128 µg/mL and 8 µg/mL (≈ 4.15 µM).
The corresponding values for `CN[C@H](CC(C)C)C(=O)N[C@H]1C(=O)N[C@@H](CC(N)=O)C(=O)N[C@H]2C(=O)N[C@H]3C(=O)NC(C(=O)N[C@@H](C(=O)NC(=O)[C@H](CO)NC(=O)[C@H](Cc4c[nH]c5ccccc45)NC(=O)[C@@H](N)Cc4ccc(O)cc4)c4cc(O)cc(O)c4-c4cc3ccc4O)[C@H](OC3C[C@](C)(N)[C@@H](O)[C@H](C)O3)c3ccc(c(Cl)c3)Oc3cc2cc(c3O[C@@H]2O[C@H](CO)[C@@H](O)[C@H](O)[C@H]2O)Oc2ccc(cc2Cl)[C@H]1O` (some centres not stated) are 16 µg/mL (≈ 8.49 µM), 32 µg/mL (≈ 17 µM) and 0.5 µg/mL (≈ 0.265 µM).
The corresponding values for `CN[C@H](CC(C)C)C(=O)N[C@H]1C(=O)N[C@@H](CC(N)=O)C(=O)N[C@H]2C(=O)N[C@H]3C(=O)NC(C(=O)N[C@@H](C(=O)NC(=O)[C@H](CCCCN)NC(=O)[C@H](Cc4ccc(O)cc4)NC(=O)[C@@H](N)CC(C)C)c4cc(O)cc(O)c4-c4cc3ccc4O)[C@H](O[C@H]3C[C@](C)(N)[C@@H](O)[C@H](C)O3)c3ccc(c(Cl)c3)Oc3cc2cc(c3O[C@@H]2O[C@H](CO)[C@@H](O)[C@H](O)[C@H]2O)Oc2ccc(cc2Cl)[C@H]1O` are 32 µg/mL (≈ 17.3 µM), 128 µg/mL (≈ 69.1 µM) and 0.5 µg/mL (≈ 0.27 µM).
In the case of `CN[C@H](CC(C)C)C(=O)N[C@H]1C(=O)N[C@@H](CC(N)=O)C(=O)N[C@H]2C(=O)N[C@H]3C(=O)NC(C(=O)N[C@@H](C(=O)NC(=O)[C@H](Cc4ccc(O)cc4)NC(=O)[C@H](Cc4c[nH]cn4)NC(=O)[C@@H](N)CCCCN)c4cc(O)cc(O)c4-c4cc3ccc4O)[C@H](O[C@H]3C[C@](C)(N)[C@@H](O)[C@H](C)O3)c3ccc(c(Cl)c3)Oc3cc2cc(c3O[C@@H]2O[C@H](CO)[C@@H](O)[C@H](O)[C@H]2O)Oc2ccc(cc2Cl)[C@H]1O`, the MIC against Enterococcus faecium worked out at 64 µg/mL (≈ 34.1 µM); in the experiment on Enterococcus faecalis it was 128 µg/mL (≈ 68.2 µM); in the experiment with Staphylococcus aureus, 1 µg/mL (≈ 0.533 µM).
Regarding `CN[C@H](CC(C)C)C(=O)N[C@H]1C(=O)N[C@@H](CC(N)=O)C(=O)N[C@H]2C(=O)N[C@H]3C(=O)NC(C(=O)N[C@@H](C(=O)NC(=O)[C@H](Cc4ccc(O)cc4)NC(=O)[C@H](Cc4c[nH]c5ccccc45)NC(=O)[C@@H](N)CC(C)C)c4cc(O)cc(O)c4-c4cc3ccc4O)[C@H](O[C@H]3C[C@](C)(N)[C@@H](O)[C@H](C)O3)c3ccc(c(Cl)c3)Oc3cc2cc(c3O[C@@H]2O[C@H](CO)[C@@H](O)[C@H](O)[C@H]2O)Oc2ccc(cc2Cl)[C@H]1O`, the MIC was 8 µg/mL (≈ 4.19 µM) against Enterococcus faecium, 16 µg/mL (≈ 8.37 µM) in the experiment on Enterococcus faecalis and 0.5 µg/mL (≈ 0.262 µM) against Staphylococcus aureus.
Take `CN[C@H](CC(C)C)C(=O)N[C@H]1C(=O)N[C@@H](CC(N)=O)C(=O)N[C@H]2C(=O)N[C@H]3C(=O)NC(C(=O)N[C@@H](C(=O)NC(=O)[C@H](Cc4c[nH]cn4)NC(=O)[C@H](CCCCN)NC(=O)[C@@H](N)Cc4c[nH]c5ccccc45)c4cc(O)cc(O)c4-c4cc3ccc4O)[C@H](O[C@H]3C[C@](C)(N)[C@@H](O)[C@H](C)O3)c3ccc(c(Cl)c3)Oc3cc2cc(c3O[C@@H]2O[C@H](CO)[C@@H](O)[C@H](O)[C@H]2O)Oc2ccc(cc2Cl)[C@H]1O`: the MIC with Enterococcus faecium is 8 µg/mL (≈ 4.21 µM); against Enterococcus faecalis, 64 µg/mL (≈ 33.7 µM); in the experiment on Staphylococcus aureus, less than 0.125 µg/mL.
On to `CN[C@H](CC(C)C)C(=O)N[C@H]1C(=O)N[C@@H](CC(N)=O)C(=O)N[C@H]2C(=O)N[C@H]3C(=O)NC(C(=O)N[C@@H](C(=O)O)c4cc(O)cc(O)c4-c4cc3ccc4O)[C@H](O[C@H]3C[C@](C)(N)[C@@H](O)[C@H](C)O3)c3ccc(c(Cl)c3)Oc3cc2cc(c3O[C@@H]2O[C@H](CO)[C@@H](O)[C@H](O)[C@H]2O)Oc2ccc(cc2Cl)[C@H]1O`, for which the MIC is more than 128 µg/mL in the experiment with Enterococcus faecium, more than 128 µg/mL in the experiment with Enterococcus faecalis and 0.5 µg/mL (≈ 0.345 µM) against Staphylococcus aureus.
